{"source": "patent US8206898B2", "about": "“RNA exit channel: target and method for inhibition of bacterial RNA polymerase” (priority 2003, dated 2012)", "key": {"[1]": {"tested_on": "Gram-positive bacteria and Gram-negative bacteria", "conditions": "literature (Coronelli et al., 1975); cited from earlier work"}, "bacterial RNAP": {"tested_on": "bacterial RNAP", "conditions": "literature; cited from earlier work"}, "[2]": {"tested_on": "Escherichia coli hyper-permeable strain D21f2/TolC", "test": "MIC of Lpm for Escherichia coli Lpm^R isolates from saturation mutagenesis and selection", "assay_type": "cell-based", "procedure": "To define systematically determinants for function of Lpm, saturation mutagenesis of Escherichia coli rpoB and rpoC was performed, and Lpm^R mutants were isolated and characterized (targeting codons or residues located within 20 Å of Bacillus subtilis Lpm^R sites in the three-dimensional structure of RNAP; methods as in Mukhopadhyay, et al., (2004) Mol. Cell, in press, except that selection was performed in hyper-permeable strain D21f2/TolC (rfa tolC; Fralick et al., (1994) J. Bacteriol. 176, 6404-6406)). 24 independent single-substitution Lpm^r mutants were identified (Table 2). The substitution sites define an approximately 20 Å×20 Å continuous surface, located within the RNA-exit-channel, spanning the target, and containing each residue of the target (i.e., residues 1251, 1256, and 1321 of β and residues 248-249 of β′; Table 2). Substitution sites corresponding to substitution sites in the Bacillus subtilis Lpm^R mutants described above were among those identified (i.e., residue 1256 of β and residues 249 and 337 of β′; Tables 1, 2)."}, "[3]": {"molecular_target": "RNAP-promoter open complex (RNAP holoenzyme, lacUV5-12 DNA fragment) (Escherichia coli, UniProt P0A8T7+P0A8V2)", "sequence (P0A7Z4 whole entry, the tested form may be a part)": "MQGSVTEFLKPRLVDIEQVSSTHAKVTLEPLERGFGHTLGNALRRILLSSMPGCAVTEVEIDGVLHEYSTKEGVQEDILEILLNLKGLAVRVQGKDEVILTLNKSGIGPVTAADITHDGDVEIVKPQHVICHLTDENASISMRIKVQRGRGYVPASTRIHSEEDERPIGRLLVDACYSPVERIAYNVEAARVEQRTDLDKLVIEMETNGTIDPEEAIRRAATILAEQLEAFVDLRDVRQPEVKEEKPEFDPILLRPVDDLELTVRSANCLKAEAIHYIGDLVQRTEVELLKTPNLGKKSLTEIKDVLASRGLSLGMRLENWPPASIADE", "sequence (P0A8V2 whole entry, the tested form may be a part)": "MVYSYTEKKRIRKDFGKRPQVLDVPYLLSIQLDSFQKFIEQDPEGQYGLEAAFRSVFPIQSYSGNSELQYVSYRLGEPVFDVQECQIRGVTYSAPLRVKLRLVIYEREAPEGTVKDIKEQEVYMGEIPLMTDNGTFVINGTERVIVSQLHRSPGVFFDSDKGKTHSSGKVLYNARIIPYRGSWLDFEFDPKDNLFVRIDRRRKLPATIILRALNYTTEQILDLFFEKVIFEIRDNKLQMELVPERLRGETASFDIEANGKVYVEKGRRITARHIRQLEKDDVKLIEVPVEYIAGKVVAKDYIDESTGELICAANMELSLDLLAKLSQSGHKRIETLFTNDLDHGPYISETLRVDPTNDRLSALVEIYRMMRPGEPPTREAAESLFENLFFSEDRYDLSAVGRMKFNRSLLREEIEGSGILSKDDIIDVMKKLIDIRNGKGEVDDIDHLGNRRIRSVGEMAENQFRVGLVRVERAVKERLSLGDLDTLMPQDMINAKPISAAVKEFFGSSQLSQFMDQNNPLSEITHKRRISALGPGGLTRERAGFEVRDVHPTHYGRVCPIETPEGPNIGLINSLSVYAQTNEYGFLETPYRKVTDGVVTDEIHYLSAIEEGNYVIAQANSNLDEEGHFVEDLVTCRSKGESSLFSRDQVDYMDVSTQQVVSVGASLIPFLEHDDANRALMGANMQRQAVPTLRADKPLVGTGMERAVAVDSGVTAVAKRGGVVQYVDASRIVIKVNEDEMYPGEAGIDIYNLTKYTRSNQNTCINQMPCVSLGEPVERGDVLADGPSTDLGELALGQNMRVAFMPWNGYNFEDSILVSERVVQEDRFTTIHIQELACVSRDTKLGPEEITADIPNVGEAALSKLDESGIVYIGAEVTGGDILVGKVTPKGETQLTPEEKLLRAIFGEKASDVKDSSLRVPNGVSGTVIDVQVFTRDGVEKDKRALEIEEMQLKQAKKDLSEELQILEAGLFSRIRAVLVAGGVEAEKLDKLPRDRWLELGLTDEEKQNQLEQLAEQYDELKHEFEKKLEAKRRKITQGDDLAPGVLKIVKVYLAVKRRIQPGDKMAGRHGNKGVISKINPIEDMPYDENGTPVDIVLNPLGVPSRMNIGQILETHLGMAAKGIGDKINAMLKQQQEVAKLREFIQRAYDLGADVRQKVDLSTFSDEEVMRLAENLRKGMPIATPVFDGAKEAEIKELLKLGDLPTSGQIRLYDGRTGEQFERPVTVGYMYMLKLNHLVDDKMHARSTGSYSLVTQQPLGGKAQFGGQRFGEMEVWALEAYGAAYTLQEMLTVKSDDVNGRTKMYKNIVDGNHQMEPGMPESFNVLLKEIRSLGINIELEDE", "sequence (P0A800 whole entry, further chain, the tested form may be a part)": "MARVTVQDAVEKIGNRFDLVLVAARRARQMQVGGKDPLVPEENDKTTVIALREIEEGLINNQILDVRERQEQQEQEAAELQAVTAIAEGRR", "sequence (P00579 whole entry, further chain, the tested form may be a part)": "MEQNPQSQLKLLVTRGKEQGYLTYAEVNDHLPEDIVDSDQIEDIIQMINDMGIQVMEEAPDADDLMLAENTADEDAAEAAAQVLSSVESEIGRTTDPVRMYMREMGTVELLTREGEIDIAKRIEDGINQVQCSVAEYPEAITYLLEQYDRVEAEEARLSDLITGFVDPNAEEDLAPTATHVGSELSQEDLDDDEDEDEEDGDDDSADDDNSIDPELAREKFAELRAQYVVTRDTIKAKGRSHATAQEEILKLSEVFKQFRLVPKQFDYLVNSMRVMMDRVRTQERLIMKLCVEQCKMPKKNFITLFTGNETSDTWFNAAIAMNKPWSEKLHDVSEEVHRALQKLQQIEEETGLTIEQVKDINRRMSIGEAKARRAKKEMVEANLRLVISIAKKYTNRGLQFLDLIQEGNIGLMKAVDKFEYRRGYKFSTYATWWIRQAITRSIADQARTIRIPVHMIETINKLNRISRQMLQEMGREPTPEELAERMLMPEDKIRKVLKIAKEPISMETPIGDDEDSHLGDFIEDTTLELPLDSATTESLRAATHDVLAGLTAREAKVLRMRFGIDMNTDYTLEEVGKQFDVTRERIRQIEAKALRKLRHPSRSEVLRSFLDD", "sequence (P0A8T7 whole entry, the tested form may be a part)": "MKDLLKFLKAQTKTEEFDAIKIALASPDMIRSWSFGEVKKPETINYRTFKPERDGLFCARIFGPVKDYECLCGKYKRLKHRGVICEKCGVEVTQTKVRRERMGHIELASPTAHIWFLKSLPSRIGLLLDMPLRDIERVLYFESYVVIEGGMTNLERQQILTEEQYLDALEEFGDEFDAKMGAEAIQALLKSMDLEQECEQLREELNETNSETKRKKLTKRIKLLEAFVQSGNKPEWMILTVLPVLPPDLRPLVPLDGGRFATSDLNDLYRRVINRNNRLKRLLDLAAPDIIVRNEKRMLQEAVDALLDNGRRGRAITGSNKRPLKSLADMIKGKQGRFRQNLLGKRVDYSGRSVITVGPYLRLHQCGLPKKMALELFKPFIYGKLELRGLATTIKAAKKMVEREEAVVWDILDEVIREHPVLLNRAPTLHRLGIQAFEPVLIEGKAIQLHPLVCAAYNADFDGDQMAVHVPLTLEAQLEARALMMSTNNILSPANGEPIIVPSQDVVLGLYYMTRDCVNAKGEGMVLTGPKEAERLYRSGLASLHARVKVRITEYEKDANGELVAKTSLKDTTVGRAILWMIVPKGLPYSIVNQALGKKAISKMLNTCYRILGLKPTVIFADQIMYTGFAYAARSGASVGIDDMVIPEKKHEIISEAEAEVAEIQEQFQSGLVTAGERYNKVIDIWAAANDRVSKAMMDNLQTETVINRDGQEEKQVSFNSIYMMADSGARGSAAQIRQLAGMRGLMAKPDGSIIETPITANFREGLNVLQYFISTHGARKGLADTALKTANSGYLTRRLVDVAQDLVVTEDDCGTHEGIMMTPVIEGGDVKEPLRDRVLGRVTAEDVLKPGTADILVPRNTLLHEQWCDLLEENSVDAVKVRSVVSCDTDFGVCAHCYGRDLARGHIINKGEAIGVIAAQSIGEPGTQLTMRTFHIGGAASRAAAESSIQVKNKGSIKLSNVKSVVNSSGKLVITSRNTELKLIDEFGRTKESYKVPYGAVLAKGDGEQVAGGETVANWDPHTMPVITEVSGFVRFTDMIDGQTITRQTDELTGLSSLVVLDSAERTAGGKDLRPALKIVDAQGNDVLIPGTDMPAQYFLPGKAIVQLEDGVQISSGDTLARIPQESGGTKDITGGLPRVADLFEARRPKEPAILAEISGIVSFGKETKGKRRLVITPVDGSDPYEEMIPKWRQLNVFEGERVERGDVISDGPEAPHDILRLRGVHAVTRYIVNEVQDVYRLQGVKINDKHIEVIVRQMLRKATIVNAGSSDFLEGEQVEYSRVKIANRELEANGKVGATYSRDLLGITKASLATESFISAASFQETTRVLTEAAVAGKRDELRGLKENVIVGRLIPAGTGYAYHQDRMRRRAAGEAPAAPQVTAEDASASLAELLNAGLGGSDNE", "test": "Electrophoretic mobility-shift analysis of open-complex formation", "assay_type": "biochemical", "conditions": "0-100 μm Lpm, added to RNAP before addition of the promoter DNA; FIG. 3", "procedure": "To determine whether Lpm inhibits steps in transcription up to and including formation of the RNAP-promoter open complex, electrophoretic mobility-shift experiments were performed. The analysis of open-complex formation was performed as follows: reaction mixtures (20 μl) contained 100 nM RNAP holoenzyme, 20 nM fluorochrome-labeled DNA fragment lacUV5-12 (Cy5, +26) (Mukhopadhyay et al., 2001), and 0-100 μm Lpm in TB (50 mM Tris-HCl (pH 8.0), 100 mM KCl, 10 mM MgCl2, 1 mM dithiothreitol, 10 μg/ml bovine serum albumin, and 5% glycerol), added before or after the DNA. Following 15 min at 37° C., 0.5 μl 1 mg/ml heparin was added (to disrupt non-specific complexes), and, following a further 2 minutes at 37° C., reaction mixtures were applied to 5% polyacrylamide slab gels (30:1 acrylamide/bisacrylamide; 6×9×0.1 cm) and electrophoresed in 90 mM Tris-borate (pH 8.0) and 0.2 mM EDTA (20 V/cm; 30 min at 37° C.) and analyzed using a fluorescence scanner (Storm 860; Molecular Dynamics)."}}, "data": [{"substance": "lipiarmycin [Lpm]", "values": [{"measurement": "antibacterial effectiveness", "setting": "[1]", "result": "effective against both Gram-positive bacteria and Gram-negative bacteria"}, {"measurement": "inhibition of bacterial RNAP", "setting": "bacterial RNAP", "result": "inhibits bacterial RNAP"}, {"measurement": "MIC (mg/ml) (wild-type = 1)", "setting": "[2]; RpoB 1251 Tyr→Phe", "result": "10 fold relative to wild-type"}, {"measurement": "MIC (mg/ml) (wild-type = 1)", "setting": "[2]; RpoB 1256 Gln→Glu", "result": "10 fold relative to wild-type"}, {"measurement": "MIC (mg/ml) (wild-type = 1)", "setting": "[2]; RpoB 1256 Gln→Leu", "result": "5 fold relative to wild-type"}, {"measurement": "MIC (mg/ml) (wild-type = 1)", "setting": "[2]; RpoB 1302 Thr→Pro", "result": "5 fold relative to wild-type"}, {"measurement": "MIC (mg/ml) (wild-type = 1)", "setting": "[2]; RpoB 1318 Gly→Ser", "result": "5 fold relative to wild-type"}, {"measurement": "MIC (mg/ml) (wild-type = 1)", "setting": "[2]; RpoB 1319 Met→Arg", "result": "10 fold relative to wild-type"}, {"measurement": "MIC (mg/ml) (wild-type = 1)", "setting": "[2]; RpoB 1319 Met→Lys", "result": "5 fold relative to wild-type"}, {"measurement": "MIC (mg/ml) (wild-type = 1)", "setting": "[2]; RpoB 1321 Glu→Val", "result": "5 fold relative to wild-type"}, {"measurement": "MIC (mg/ml) (wild-type = 1)", "setting": "[2]; RpoB 1325 Val→Ala", "result": "10 fold relative to wild-type"}, {"measurement": "MIC (mg/ml) (wild-type = 1)", "setting": "[2]; RpoB 1325 Val→Leu", "result": "5 fold relative to wild-type"}, {"measurement": "MIC (mg/ml) (wild-type = 1)", "setting": "[2]; RpoC 248 Asp→Tyr", "result": "5 fold relative to wild-type"}, {"measurement": "MIC (mg/ml) (wild-type = 1)", "setting": "[2]; RpoC 249 Leu→Arg", "result": "5 fold relative to wild-type"}, {"measurement": "MIC (mg/ml) (wild-type = 1)", "setting": "[2]; RpoC 337 Arg→Hys", "result": "5 fold relative to wild-type"}, {"measurement": "MIC (mg/ml) (wild-type = 1)", "setting": "[2]; RpoC 337 Arg→Ser", "result": "5 fold relative to wild-type"}, {"measurement": "MIC (mg/ml) (wild-type = 1)", "setting": "[2]; wild-type E. coli", "result": "(wild-type = 1) mg/ml"}, {"measurement": "formation of the RNAP-promoter open complex", "setting": "[3]", "result": "inhibits formation of the RNAP-promoter open complex"}]}]}
